Several values for one entry are separate records, joined by “and”; a condition that tells them apart may be missing. Identical values can stand only once. Toxic doses and inconclusive results are not listed.

The experiment relates to P388 leukemia ip, CD2F1 mice, survival T/C. The experiment can be described thus: NCI In Vivo Anticancer Drug Screen. Data for tumor model P388 Leukemia (intraperitoneal) in CD2F1 (CDF1) mice. The conditions noted are these: endpoint: median survival time, higher = longer survival. The essentials: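 Mice carrying the transplanted tumor received test compound or vehicle. Survival was recorded in each group, and the value is the treated-group measurement divided by that of the vehicle-treated control group.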

Where [1] appears, read: dose: 100.0 mg/kg/injection, schedule: Q01DX001 (ip), vehicle: saline with Tween-80.
The mark [2] stands for this setting: dose: 200.0 mg/kg/injection, schedule: Q01DX001 (ip), vehicle: saline with Tween-80.
The mark [3] stands for this setting: dose: 12.5 mg/kg/injection, schedule: Q01DX009 (ip), vehicle: water.
[4] abbreviates: dose: 50.0 mg/kg/injection, schedule: Q01DX009 (ip), vehicle: Klucel (hydroxypropylcellulose) (HPC).
[5] abbreviates: dose: 100.0 mg/kg/injection, schedule: Q01DX009 (ip), vehicle: Klucel (hydroxypropylcellulose) (HPC).
The mark [6] stands for this setting: dose: 200.0 mg/kg/injection, schedule: Q01DX009 (ip), vehicle: Klucel (hydroxypropylcellulose) (HPC).
Setting [7] is: dose: 50.0 mg/kg/injection, schedule: Q01DX009 (ip), vehicle: saline.
Where [8] appears, read: dose: 100.0 mg/kg/injection, schedule: Q01DX009 (ip), vehicle: saline.

Turning to `c1ccc(-c2ncc[nH]2)cc1`, the T/C reads like this: under setting [1], 98 % of control; under setting [2], 97 % of control.

Consider `COc1cccc2c1C(=O)c1c(O)c3c(c(O)c1C2=O)C[C@H](O)C[C@@H]3OC1CC(N)C(O)C(C)O1` (some centres not stated), for which the T/C is 105 % of control (dose: 0.5 mg/kg/injection, schedule: Q04DX003 (ip), vehicle: saline); 114 % of control (dose: 1.0 mg/kg/injection, schedule: Q04DX003 (ip), vehicle: saline); 155 % of control and 161 % of control (dose: 1.56 mg/kg/injection, schedule: Q01DX009 (ip), vehicle: water); 107 % of control (dose: 2.0 mg/kg/injection, schedule: Q04DX003 (ip), vehicle: saline); 174 % of control (dose: 3.13 mg/kg/injection, schedule: Q01DX009 (ip), vehicle: water); 117 % of control (dose: 4.0 mg/kg/injection, schedule: Q04DX003 (ip), vehicle: saline). For the same compound, the T/C is 109 % of control (dose: 4.7 mg/kg/injection, schedule: Q04DX003 (ip), vehicle: water); 180 % of control and 209 % of control (dose: 6.25 mg/kg/injection, schedule: Q01DX009 (ip), vehicle: water); 108 % of control (dose: 8.0 mg/kg/injection, schedule: Q04DX003 (ip), vehicle: saline); 228 % of control and 236 % of control under setting [3]; 169 % of control (dose: 64.0 mg/kg/injection, schedule: Q04DX003 (ip), vehicle: saline); 181 % of control (dose: 75.0 mg/kg/injection, schedule: Q04DX003 (ip), vehicle: water). The T/C (dose: 113.0 mg/kg/injection, schedule: Q04DX003 (ip), vehicle: water) was 116 % of control and the T/C (dose: 128.0 mg/kg/injection, schedule: Q04DX003 (ip), vehicle: saline) is 100 % of control.

Take `COC(=O)c1ccc(CNC(=O)c2ccccc2C(=O)NCC2(CBr)OCCO2)cc1`: the T/C runs as follows: under setting [4], 113 % of control; under setting [5], 99 % of control; under setting [6], 96 % of control.

For the compound `COc1ccc(-c2c(C#N)c(N)nc(C)c2-c2ccccc2)cc1`, the T/C under setting [1] is 100 % of control; the T/C under setting [2] was 96 % of control; the T/C (dose: 400.0 mg/kg/injection, schedule: Q01DX001 (ip), vehicle: saline with Tween-80) is 91 % of control.

With `NC(=O)C(N)C(F)c1ccccc1` (configuration not stated), the T/C was 102 % of control (dose: 60.0 mg/kg/injection, schedule: Q01DX005 (ip), vehicle: saline with Tween-80) and 95 % of control (dose: 120.0 mg/kg/injection, schedule: Q01DX005 (ip), vehicle: saline with Tween-80).

Regarding `COc1ccc(C2=NC(c3ccccc3)NC(c3ccccc3)/C2=C/c2ccccc2)cc1` (configuration not stated), the T/C is, setting by setting: (dose: 6.25 mg/kg/injection, schedule: Q01DX009 (ip), vehicle: saline with Tween-80) 100 % of control; (dose: 12.5 mg/kg/injection, schedule: Q01DX009 (ip), vehicle: saline with Tween-80) 100 % of control; (dose: 25.0 mg/kg/injection, schedule: Q01DX009 (ip), vehicle: saline with Tween-80) 105 % of control; (dose: 50.0 mg/kg/injection, schedule: Q01DX009 (ip), vehicle: saline with Tween-80) 100 % of control.

Take `Cc1nc(N)nc(N)c1-c1ccc(Cl)c(Cl)c1`: the T/C was 109 % of control (dose: 1.0 mg/kg/injection, schedule: Q01DX009 (ip), vehicle: saline); 123 % of control (dose: 2.0 mg/kg/injection, schedule: Q01DX009 (ip), vehicle: saline); 163 % of control (dose: 3.0 mg/kg/injection, schedule: Q01DX009 (ip), vehicle: saline with Tween-80); 98 % of control (dose: 4.0 mg/kg/injection, schedule: Q01DX009 (ip), vehicle: saline); 104 % of control (dose: 4.0 mg/kg/injection, schedule: Q04DX002 (ip), vehicle: saline with Tween-80); 86 % of control (dose: 6.0 mg/kg/injection, schedule: Q01DX009 (ip), vehicle: saline with Tween-80). Moreover, the T/C is 104 % of control (dose: 6.0 mg/kg/injection, schedule: Q04DX002 (ip), vehicle: saline with Tween-80); 120 % of control (dose: 6.25 mg/kg/injection, schedule: Q04DX003 (ip), vehicle: saline with Tween-80); 98 % of control (dose: 8.0 mg/kg/injection, schedule: Q01DX009 (ip), vehicle: saline); 99 % of control (dose: 8.0 mg/kg/injection, schedule: Q04DX002 (ip), vehicle: saline with Tween-80); 107 % of control (dose: 10.0 mg/kg/injection, schedule: Q04DX002 (ip), vehicle: saline with Tween-80); 123 % of control (dose: 12.0 mg/kg/injection, schedule: Q04DX002 (ip), vehicle: saline with Tween-80). In addition, the T/C was 99 % of control (dose: 20.0 mg/kg/injection, schedule: Q04DX002 (ip), vehicle: saline); 155 % of control (dose: 25.0 mg/kg/injection, schedule: Q04DX003 (ip), vehicle: saline with Tween-80); 107 % of control (dose: 30.0 mg/kg/injection, schedule: Q04DX002 (ip), vehicle: saline); 119 % of control (dose: 40.0 mg/kg/injection, schedule: Q04DX002 (ip), vehicle: saline).

On to `CCCCCCC1(/C=C\c2ccccc2Cl)OCCO1`, for which the T/C under setting [4] is 103 % of control, the T/C under setting [5] was 94 % of control and the T/C under setting [6] was 108 % of control.

As for `O=c1[nH]c(=O)c2cc3[nH]ncc3cc2[nH]1`, the T/C is, setting by setting: (dose: 25.0 mg/kg/injection, schedule: Q01DX005 (ip), vehicle: saline with Tween-80) 93 % of control; (dose: 50.0 mg/kg/injection, schedule: Q01DX005 (ip), vehicle: saline with Tween-80) 93 % of control; (dose: 100.0 mg/kg/injection, schedule: Q01DX005 (ip), vehicle: saline with Tween-80) 92 % of control.

As for `C1=CC2C=CC1C2c1ccccc1` (configuration not stated), the T/C under setting [7] is 108 % of control and 86 % of control; the T/C under setting [8] is 105 % of control and 111 % of control; the T/C (dose: 200.0 mg/kg/injection, schedule: Q01DX009 (ip), vehicle: saline) is 116 % of control and 98 % of control.

For `COC(=O)c1[c]([Sn]([CH3])([CH3])[CH3])n[n]([Sn]([CH3])([CH3])[CH3])c1C(=O)OC`, the T/C (dose: 6.25 mg/kg/injection, schedule: Q04DX003 (ip), vehicle: saline) is 98 % of control and the T/C (dose: 12.5 mg/kg/injection, schedule: Q04DX003 (ip), vehicle: saline) is 98 % of control.

For the compound `COc1ccc2c(NCCCCCCCCNc3c4ccc(OC)cc4nc4cc([N+](=O)[O-])ccc34)c3ccc([N+](=O)[O-])cc3nc2c1`, the T/C is, setting by setting: (dose: 0.63 mg/kg/injection, schedule: Q01DX009 (ip), vehicle: other) 88 % of control; (dose: 1.25 mg/kg/injection, schedule: Q01DX009 (ip), vehicle: other) 88 % of control; (dose: 2.5 mg/kg/injection, schedule: Q01DX009 (ip), vehicle: other) 119 % of control; (dose: 5.0 mg/kg/injection, schedule: Q01DX009 (ip), vehicle: other) 120 % of control; (dose: 10.0 mg/kg/injection, schedule: Q01DX009 (ip), vehicle: other) 121 % of control; (dose: 20.0 mg/kg/injection, schedule: Q01DX009 (ip), vehicle: other) 120 % of control.

With `Nc1cccc2c1C(=O)c1nc3ccccc3nc1C2=O`, the T/C runs as follows: (dose: 100.0 mg/kg/injection, schedule: Q01DX001 (ip), vehicle: Klucel + Tween-80) 98 % of control; (dose: 200.0 mg/kg/injection, schedule: Q01DX001 (ip), vehicle: Klucel + Tween-80) 94 % of control; (dose: 400.0 mg/kg/injection, schedule: Q01DX001 (ip), vehicle: Klucel + Tween-80) 94 % of control.

As to `NC(Cc1ccccc1)C(=O)OCN1C(=O)C2C3C=CC(C2C1=O)C1C2C(=O)N(COC(=O)C(N)Cc4ccccc4)C(=O)C2C31` (configuration not stated), the T/C was 103 % of control under setting [3]; 100 % of control and 102 % of control (dose: 25.0 mg/kg/injection, schedule: Q01DX009 (ip), vehicle: saline); 106 % of control and 113 % of control and 103 % of control (dose: 25.0 mg/kg/injection, schedule: Q01DX009 (ip), vehicle: water); 110 % of control under setting [7]; 109 % of control and 124 % of control (dose: 50.0 mg/kg/injection, schedule: Q01DX009 (ip), vehicle: water); 184 % of control under setting [8]. The T/C is 189 % of control and 197 % of control (dose: 100.0 mg/kg/injection, schedule: Q01DX009 (ip), vehicle: water); 192 % of control (dose: 150.0 mg/kg/injection, schedule: Q01DX009 (ip), vehicle: saline).

Values taken from PubChem BioAssay AID330 (DTP/NCI, 2004).
